Data: article PMC12655637, “Design, Synthesis, and Mechanistic Study of Novel Ciprofloxacin/Thiazole Chalcone Hybrids as Potential Anticancer Agents” (Pharmaceuticals, 2025)

What was measured:
Assay in all cases: NCI-60 screening, one-dose (10 µM) and five-dose, SRB
[1] = test system: M14; format: cell-based, human
[2] = test system: MALME-3M; format: cell-based, human
[3] = test system: SK-MEL-5; format: cell-based, human
[4] = test system: OVCAR-8; format: cell-based, human
[5] = test system: RPMI-8226; format: cell-based, human; conditions: RPMI-8226
[6] = test system: MCF7; format: cell-based, human
[7] = test system: NCI-H226; format: cell-based, human
[8] = test system: SNB-19; format: cell-based
[9] = test system: NCI-H522; format: cell-based, human
[10] = test system: HOP-62; format: cell-based, human; conditions: five-dose, HOP-62
[11] = test system: SK-MEL-2; format: cell-based, human
[12] = test system: NCI-H322M; format: cell-based, human
[13] = test system: DU-145; format: cell-based, human
[14] = test system: UACC-257; format: cell-based, human
[15] = test system: CAKI-1; format: cell-based; conditions: Homo sapiens
[16] = Homo sapiens, five-dose, read-out: LC50 (the source's name)
[17] = Homo sapiens, five-dose, SK-MEL-5
[18] = Homo sapiens, five-dose, OVCAR-8
[19] = Homo sapiens, five-dose, NCI-H226
[20] = Homo sapiens, five-dose, SNB-19
[21] = Homo sapiens, five-dose, NCI-H522
[22] = Homo sapiens, five-dose, SK-MEL-2
[23] = Homo sapiens, five-dose, DU-145
[24] = Homo sapiens, five-dose, UACC-257

Compound `Cc1nc(SCC(=O)N2CCN(c3cc4c(cc3F)c(=O)c(C(=O)O)cn4C3CC3)CC2)sc1C(=O)/C=C/c1cccc(Cl)c1` [Compound 4b, (E)-7-(4-(2-((5-(3-(3-Chlorophenyl)acryloyl)-4-methylthiazol-2-yl)thio)acetyl)piperazin-1-yl)-1-cyclopropyl-6-fluoro-4-oxo-1,4-dihydroquinoline-3-carboxylic Acid] has an activity at 10 µM ([1]; Homo sapiens, 10 μM, M14, Melanoma, read-out: Growth percentage) of 48.7%, a GI50 ([1]; Homo sapiens, five-dose, M14) of 27.5 µM and an IC50 ([1]; Homo sapiens, five-dose, M14) of 69.2 µM. The CC50 ([1]; Homo sapiens, five-dose, M14, read-out: LC50 (the source's name)) was > 100 µM, the TGI ([1]; five-dose, M14) was 100.0 µM and the Growth percentage ([2]; 10 μM, Melanoma) was 143.6%. For the same compound, the GI50 ([2]; Homo sapiens, five-dose) was > 100 µM, the IC50 ([2]; Homo sapiens, five-dose) was > 100 µM and the CC50 [2, 16] was > 100 µM. It also gave a TGI ([2]; five-dose) of 100.0 µM, an activity at 10 µM ([3]; Homo sapiens, 10 μM, SK-MEL-5, Melanoma, read-out: Growth percentage) of 50.3% and a GI50 [3, 17] of 21.9 µM. The IC50 [3, 17] was > 100 µM, the CC50 ([3]; Homo sapiens, five-dose, SK-MEL-5, read-out: LC50 (the source's name)) was > 100 µM and the TGI ([3]; five-dose, SK-MEL-5) was 100.0 µM. For the same compound, the activity at 10 µM ([4]; Homo sapiens, 10 μM, OVCAR-8, Ovarian Cancer, read-out: Growth percentage) was 46.1%, the GI50 [4, 18] was > 100 µM and the IC50 [4, 18] was > 100 µM. For the same compound, the CC50 ([4]; Homo sapiens, five-dose, OVCAR-8, read-out: LC50 (the source's name)) was > 100 µM, the TGI ([4]; five-dose, OVCAR-8) was 100.0 µM and the IC50 ([5]; Homo sapiens, RPMI-8226, five-dose) was 0.3 µM. It also gave a GI50 ([5]; Homo sapiens, five-dose) of 0.2 µM, a CC50 [5, 16] of 0.6 µM and a TGI ([5]; five-dose) of 0.3 µM. It also gave an activity at 10 µM ([6]; Homo sapiens, MCF7, 10 μM, MCF7, Breast Cancer, read-out: Growth percentage) of 6.5%, a GI50 ([6]; Homo sapiens, five-dose, MCF7) of 0.4 µM and an IC50 ([6]; Homo sapiens, five-dose, MCF7) of 0.6 µM. The CC50 ([6]; Homo sapiens, five-dose, MCF7, read-out: LC50 (the source's name)) was > 100 µM, the TGI ([6]; five-dose, MCF7) was 3.5 µM and the activity at 10 µM ([7]; Homo sapiens, 10 μM, NCI-H226, Non-Small-Cell Lung Cancer, read-out: Growth percentage) was 80.9%. The GI50 [7, 19] was > 100 µM, the IC50 [7, 19] was > 100 µM and the LC50 (concentration killing 50% of cells) [7, 19] was > 100 µM. It also gave a TGI ([7]; five-dose, NCI-H226) of 100.0 µM, an activity at 10 µM ([8]; Homo sapiens, 10 μM, SNB-19, CNS Cancer, read-out: Growth percentage) of 54.7% and a GI50 [8, 20] of 22.4 µM. For the same compound, the IC50 [8, 20] was 49 µM, the CC50 ([8]; Homo sapiens, five-dose, SNB-19, read-out: LC50 (the source's name)) was > 100 µM and the TGI ([8]; five-dose, SNB-19) was 100.0 µM. For the same compound, the activity at 10 µM ([9]; Homo sapiens, 10 μM, NCI-H522, Non-Small-Cell Lung Cancer, read-out: Growth percentage) was 98.5%, the GI50 [9, 21] was > 100 µM and the IC50 [9, 21] was > 100 µM. The LC50 (concentration killing 50% of cells) [9, 21] was > 100 µM, the TGI ([9]; five-dose, NCI-H522) was 100.0 µM and the GI50 ([10]; Homo sapiens) was 4.3 µM. For the same compound, the IC50 ([10]; Homo sapiens) was > 100 µM, the CC50 ([10]; Homo sapiens, read-out: LC50 (the source's name)) was > 100 µM and the TGI [10] was 100.0 µM. The activity at 10 µM ([11]; Homo sapiens, 10 μM, SK-MEL-2, Melanoma, read-out: Growth percentage) was 60.8%, the GI50 [11, 22] was 46.8 µM and the IC50 [11, 22] was > 100 µM. For the same compound, the CC50 ([11]; Homo sapiens, five-dose, SK-MEL-2, read-out: LC50 (the source's name)) was > 100 µM, the TGI ([11]; five-dose, SK-MEL-2) was 100.0 µM and the Growth percentage ([12]; 10 μM, Non-Small-Cell Lung Cancer) was 100.9%. The GI50 ([12]; Homo sapiens, five-dose) was > 100 µM, the IC50 ([12]; Homo sapiens, five-dose) was > 100 µM and the LC50 ([12]; Homo sapiens, five-dose) was > 100 µM. For the same compound, the TGI ([12]; five-dose) was 100.0 µM, the activity at 10 µM ([13]; Homo sapiens, 10 μM, DU-145, Prostate Cancer, read-out: Growth percentage) was 94.6% and the GI50 [13, 23] was > 100 µM. For the same compound, the IC50 [13, 23] was > 100 µM, the CC50 ([13]; Homo sapiens, five-dose, DU-145, read-out: LC50 (the source's name)) was > 100 µM and the TGI ([13]; five-dose, DU-145) was 100.0 µM. The activity at 10 µM ([14]; Homo sapiens, 10 μM, UACC-257, Melanoma, read-out: Growth percentage) was 77.9%, the GI50 [14, 24] was > 100 µM and the IC50 [14, 24] was > 100 µM. The CC50 ([14]; Homo sapiens, five-dose, UACC-257, read-out: LC50 (the source's name)) was > 100 µM, the TGI ([14]; five-dose, UACC-257) was 100.0 µM and the activity at 10 µM ([15]; 10 μM, CAKI-1, Renal Cancer, read-out: Growth percentage) was 102%. The GI50 ([15]; five-dose, CAKI-1) was 87.1 µM and the IC50 ([15]; five-dose, CAKI-1) was > 100 µM.
